According to US20250288581A1, “BALIPODECT FOR TREATING OR PREVENTING AUTISM SPECTRUM DISORDERS” (TAKEDA PHARMACEUTICAL COMPANY LIMITED, priority 2018, published 2025):
Where “and” joins values, the source holds several entries; their conditions need not be identical. Equal values may be shown once. Read-outs that look alike come from different tables or passages of the source.

Key:
Male FMR1 knockout mice [1] = experiment: Suppression of audiogenic seizures in FMR1 mouse model of Fragile X Syndrome; assay type: in vivo; conditions: 125 dB tone, vs vehicle Group (1); for Latency to seizure: 5-minute test, Compound A 5 mg/kg oral 150 min prior, MPEP 30 mg/kg i.p. 30 min prior, FIG. 5; for Percent seizure (seizure rates): Compound A 5 mg/kg oral, MPEP 30 mg/kg i.p., p<0.05, FIG. 6
Method: Male FMR1 knockout mice were bred at PsychoGenics. The mice were housed in OPTI-Mice ventilated cages for the duration of the study. All mice were acclimated to the environment, examined, handled, and weighed prior to initiation of the study to assure adequate health and suitability and to minimize non-specific stress associated with manipulation. During the course of the study, 12/12 light/dark cycles were maintained. The room temperature was maintained between 20 and 23° C. with a relative humidity maintained around 50%. Chow and water were provided ad libitum for the duration of the study. Each mouse was randomly assigned across treatment groups. The testing was performed during the animals' light cycle phase at 3 weeks of age.
Prior to audiogenic seizures, on test day, three groups of mice were pre-treated as follows: • Group (1): a vehicle orally administered at a dose volume of 10 mL/kg, 150 minutes prior to testing. • Group (2): 6-Methyl-2-(phenylethynyl) pyridine HCI (“MPEP”) (Sigma Aldrich; 30 mg/kg) was dissolved in sterile injectable saline and was administered by intraperitoneal injection at a dose volume of 10 mL/kg, 30 minutes prior to testing.
After the pre-treatments, the mice of Groups (1)-(3) were individually placed in a Plexiglas chamber and allowed to explore for 15 seconds. Then, they were exposed to a 125 dB tone. The observer was blinded to the pre-treatment conditions during the test. The mice were scored by the observer based on their response, latency, and seizure intensity during a 5-minute test as follows: • 0: no response • 1. wild running and jumping • 2: clonic seizures • 3: clonic-tonic seizures • 4: tonic seizures • 5: respiratory arrest
The following endpoints were reported. […] Latency to seizure (max 300 sec. if no seizure) • 2. Percent seizure • 3. Seizure score

Male FMR1 knockout mice [2] = experiment: Fear Conditioning test in FMR1 mouse model of FXS; assay type: in vivo
Method: After completion of the open field test described in Example 6, a Fear Conditioning test was conducted on the mice of Groups (1)-(3) in a fear conditioning system manufactured by Coulbourn Instruments (PA, USA).
On day 1, mice were placed in a conditioning chamber to habituate to the context for 2 minutes […]. A tone was presented for 20 seconds. 30 seconds after the CS ended, a foot shock (1 s, 0.5 mA) was presented (US). The pairing of the CS and US was repeated a total of 3 times, with an interval of 60 seconds between pairings. Mice remained in the conditioning chamber for another 60 seconds, and then returned to their home cage.
In the morning of day 2, mice were tested for contextual memory. Mice were placed in chambers for 5 minutes. In the afternoon of day 2, mice were tested for cued memory. Mice were placed in the conditioning chamber to habituate to the context for 2 minutes (Pre-Cue). Then, the CS was presented for a total of three times for 20 seconds, with 60 second inter-trial intervals. Freezing behavior, defined as the complete lack of movement, was captured automatically with a video system and Freeze View software (Coulbourn Instruments, PA, USA).

Male FMR1 knockout mice [3] = experiment: Open Field Test in FMR1 mouse model of FXS; assay type: in vivo; conditions: Compound A 5 mg/kg oral for two weeks; FIGS. 7 and 8
Method: Male FMR1 knockout (“KO”) mice and wild-type (“WT”) mice were bred at PsychoGenics. These mice were handled and chosen according to Example 5. However, the open field test started at 10 weeks of age, following 2 weeks of dosing. Three groups of mice were tested as follows: • Group (1): WT—Vehicle Group: a vehicle was orally administered for two weeks at a dose volume of 10 mL/kg. On testing days, the vehicle was administered 150 minutes prior to testing. • Group (2): FMR1 KO—Group: a vehicle was orally administered for two weeks at a dose volume of 10 mL/kg.
Open field chambers made of Plexiglas square chambers (27.3×27.3×20.3 cm; Med Associates Inc., St Albans, VT) surrounded by infrared photo beams (16×16×16) were used to measure horizontal and vertical activity of tested mice. The mice were brought into the chamber for at least 1 hour acclimation to the experimental room conditions prior to testing. Following 150 minutes of pre-treatment, the mice were placed in the center of the chamber for a 60-minute test period. After the 60-minutes, the mice were placed back into their home cage. During the test period, locomotor activity was measured in 5 minute intervals and total distance traveled was measured.

[4] = test system: CDKL5 male hemizygous (-/Y) mice; experiment: Hindpaw clasping (amplexus) test in CDKL5 knock-out mice model; assay type: in vivo; conditions: Compound A 5 mg/kg once per day oral gavage; vs CDKL5-/Y vehicle Group (2); FIG. 1
Method: A hind paw clasping test was performed in accordance with the procedures outlined by Wang et al., PNAS, vol. 109, no. 52, pp. 21516-21521 (2012). The test is done in a CDKL5 knock-out mice model. Mice are suspended for a two-minute trial. If clasping occurs for two seconds, the mouse is positive for CDKL5 deficiency, which is a neurological impairment. Wang et al. noted the CDKL5 mutant mice, but no quantification was made. Tang et al., J. Neurosci. 37(31):7420-7437 (2017) reported 17/18 (94%) hemi male mice were positive for the clasp phenotype.
(§1) Neurobehavioral assays were run when the mice were 8-10 weeks old. Tissues were collected at the end of the study to determine plasma and CNS PK.
If clasping occurs for two seconds, the mouse is positive for CDKL5 deficiency.

[5] = Fraction unbound in plasma (fu, plasma); assay type: in vitro ADME; conditions: mouse
Excerpt: An in vitro profile of the PDE10A inhibitor was created for the CDKL5-/Y mice.

[6] = test system: CDKL5 male hemizygous (-/Y) mice; experiment: Open Field Test in CDKL5 knock-out mice model; assay type: in vivo; conditions: Compound A 5 mg/kg once per day oral; 15-minute trial; vs Groups (1) and (2); FIGS. 2A, 2B
Method: Spontaneous activity in an Open Field Arena is commonly used to assess general activity and ambulation. Mice were placed in the center of an arena for a fifteen-minute trial. The horizontal, vertical (rearing) and center activity are dependent variables.
FIG. 2A provides the results per minute from 0 to 15 minutes. FIG. 2B provides the results in five-minute intervals from 5 to 15 minutes.

[7] = Plasma and brain exposure analysis after oral administration; assay type: in vivo; conditions: CDKL5-/Y mice; for concentration at 24 h: male, CDKL5-/Y, mouse, 5 mg/kg
Excerpt: as §1
In Table 1, “LLOQ” is the “lower limit of quantification”, and it is used to indicate the sensitivity of the assays. The numbers in plasma and brain columns are in ng/mL for plasma and ng/g for brain.

Row | fraction unbound [5] | concentration at 24 h ([7]; brain, po, oral 5 mg/kg once per day, 14 days, 24 hours after the last dose, LLOQ 0.5, read-out: Concentration in mouse brain, individual sample) [ng/g] | concentration at 24 h ([7]; brain, po, oral 5 mg/kg once per day, 14 days, 24 hours after the last dose, N=6-7, read-out: Concentration in mouse brain, Mean) [ng/g] | concentration at 24 h ([7]; plasma, oral, 24 hours after the last administration, read-out: plasma concentration in all mice vs target IC50 in vivo) [ng/mL] | concentration at 24 h ([7]; plasma, po, oral 5 mg/kg once per day, 14 days, 24 hours after the last dose, N=6-7, read-out: Concentration in mouse plasma, Mean) [ng/mL] | SMILES | Latency to seizure (Male FMR1 knockout mice [1]) | Percent seizure (seizure rates) (Male FMR1 knockout mice [1]) | freezing response, contextual fear conditioning time course (Male FMR1 knockout mice [2]; 5 minute test, minute 2 and minute 5, Compound A 5 mg/kg oral, FIG. 10) | freezing behavior during Pre-Cue, cued fear conditioning (Male FMR1 knockout mice [2]; ANOVA between treatment groups, FIG. 11) | freezing response during Cue, cued fear conditioning (Male FMR1 knockout mice [2]; FMR1 mice, p=0.06, FIG. 11) | freezing response during Post-Cue, cued fear conditioning (Male FMR1 knockout mice [2]; FMR1 mice, FIG. 11) | hyperactivity (total distance traveled, 60-minute open field test) (Male FMR1 knockout mice [3]) | percentage of no clasping [4] | total distance traveled in the open field [6] | Concentration in mouse plasma, individual sample ([7]; oral 5 mg/kg once per day, 14 days, 24 hours after the last dose, LLOQ 0.1) | Concentration in mouse brain, individual sample ([7]; oral 5 mg/kg once per day, 14 days, 24 hours after the last dose, LLOQ 0.5)
1 |  |  |  |  |  | Cc1cccc(C#Cc2ccccc2)n1.Cl [MPEP, 6-Methyl-2-(phenylethynyl) pyridine HCl, reference compound] | increased the latency to seizure | significantly decreased seizure rates |  |  |  |  |  |  |  |  | 
2 | 0.116 | 36.3 | 46.1 | > 1.1 | 4.9 | COc1cn(-c2ccc(-n3cccn3)cc2F)nc(-c2ccnn2-c2ccccc2)c1=O [Compound A, 1-[2-fluoro-4-(1H-pyrazol-1-yl)phenyl]-5-methoxy-3-(1-phenyl-1H-pyrazol-5-yl)pyridazin-4(1H)-one] | increased the latency to seizure | significantly decreased seizure rates | increased freezing response | no significant differences | strong trend to increasing freezing response | increased freezing response | suppresses hyperactivity | increased the percentage of no clasping | significantly suppressed the total distance traveled | 4.3 ng/mL and 8.0 ng/mL and 4.4 ng/mL and 4.8 ng/mL and 2.8 ng/mL and 7.0 ng/mL and 3.1 ng/mL | 48.2 ng/g and 38.9 ng/g and 64.5 ng/g and 44.9 ng/g and 43.8 ng/g
